According to patent publication US20240343835A1, “COVALENT HETEROBIVALENT ANTIBODY INHIBITORS AND LIGANDS” (UNIVERSITY OF NOTRE DAME DU LAC, priority 2015, published 2024):
Values belong to the compound of their own block, whether it stands above or below them. Ends that are not written are not given here.

Key:
trastuzumab [1] = experiment: Fluorescence quenching assay with trastuzumab; format: binding; conditions: for Kd: fluorescence quenching, DNP-tagged ligands
Experimental: The binding constants (Kd) of monovalent ABS (trastuzumab binding peptide), NBS (naphthalene), and heterobivalent ligand (trast-napht) were determined using fluorescence quenching assay as previously described (Handlogten MW, et al., Chem Biol. 2011; 18 (9): 1179-1188). Briefly, ligands were titrated into trastuzumab (30 nM) as well as PBS and Indole-3-butyric acid (IBA) to exclude the effect of nonspecific interactions between DNP and tryptophan. Since DNP absorbs light at 335 nm and tryptophan emits light at 335 nm, the fluorescence of tryptophan is quenched by DNP. The fluorescence of tryptophan was read by SpectraMax M5 plate reader (Molecular Devices) at λex=280 nm and λem=335 nm with various concentrations of ligands. The fluorescence signals dropped upon titration of ligands and apparent binding constants were calculated using a Hill's curve fit in OriginPro 2015.

trastuzumab [2] = experiment: Western blot of ITC covalent conjugation to trastuzumab chains; format: biochemical; conditions: reducing gel
Experimental: ITC conjugation to active lysine on either light chain […] proximal to NBS was confirmed by western blot as previously described (Alves NJ, et al., Langmuir. 2012; 28 (25): 9640-9648). The samples (20 nM in 1×SDS reducing buffer) were run on a 10% SDS-PAGE gel at 110 V for 50 min in the presence of a Tris-glycine running buffer. The samples were then transferred to a nitrocellulose membrane (Bio-Rad) at 90 V for 90 min in a 20% methanol transfer buffer. The membrane was blocked with a blocking buffer (5% (w/v) non-fat dry milk in Tris buffered Saline with 0.05% Tween 20 (TBS-T)) for 1 hour. After 1 hour, the membrane was washed once with TBS-T and followed by incubation with HRP-conjugated goat anti-FITC IgG (1:20,000 in blocking buffer) for 45 min. The membrane was washed with 3×TBS-T for 10 min to remove the unbound secondary detection antibodies and subsequently incubated with chemiluminescent HRP substrate for 5 min to detect the location at which lysine on either heavy or light chain is conjugated to cHBL molecules. A second SDS-PAGE gel was run concurrently and stained in Commassie blue staining solution (0.15% Coomassie R-250 (EMD chemicals), 10% acetic acid and 20% methanol in DI water) and destained in destaining solution (10% acetic acid, methanol, and 80% DI water) to confirm that all the proteins were transferred to the membrane. […]

[3] = molecular target: nucleotide binding site (NBS) of IgEs; experiment: Fluorescence quenching binding of NBS ligand; conditions: monovalent affinity
trastuzumab [4] = experiment: Direct ELISA for selective binding of cHBL to trastuzumab; conditions: 8 hours, 37° C., pH 7.4
Experimental: ELISA was used to confirm selective binding of trast-cHBL to trastuzumab. […] FITC also reacted with trastuzumab at the same conditions except for pH; they were incubated in either PBS or carbonate-bicarbonate buffer. Trastuzumab without any covalent ligands was used as a negative control (pH 7.4). After an 8-hour reaction, all molecules were purified using Amicon Ultra-0.5 mL Centrifugal Filters to remove the unbound covalent ligands. Concentration of trastuzumab was determined by SpectraMax M5 plate reader. For ELISA, 96 well high-binding assay plate was coated with trastuzumab (0.5 nM in carbonate-bicarbonate buffer) overnight at 4° C. refrigerator. The next morning, the wells were washed with a washing buffer (0.05% Tween 20 in PBS) using AquaMax 2000 plate automatic washer (Molecular Devices) to remove unbound trastuzumab and blocked with blocking buffer (5% (w/v) BSA and 0.1% (v/v) Tween 20 in PBS) for 1 hour at room temperature. After 1 hour, the wells were washed and then incubated with goat anti-FITC IgG-HRP conjugate (1:20,000 in blocking buffer) for 1 hour. Amplex Red Hydrogen Peroxide/Peroxidase Assay kit was used to initiate enzymatic reaction and the fluorescence (λex=570 nm and λem=592 nm) was read by SpectraMax M5 plate reader.

NBS of trastuzumab = experiment: Competitive ELISA of naphthalene-biotin binding to the NBS; conditions: 2 and 10 μM, p<0.01
Experimental: The specificity of naphthalene to NBS of IgG was confirmed using UV photo-cross-linking method and competitive sandwich ELISA. The wells of high binding plate were coated with goat-derived anti-human IgGs (1 nM in carbonate-bicarbonate buffer) overnight at 4° C. Trastuzumab (100 nM in PBS) prepared for ELISA described above was incubated with naphthalene-EG11-biotin (25 μM in PBS) for 1 hour at room temperature. PBS with only naphthalene-EG11-biotin was used as a negative control to normalize the binding curve. After 1 hour incubation, the molecules were exposed to UV light (1 J/cm^2) in a Spectroline UV select Series Cross-linker (Spectronics) to induce covalent photo-cross-linking of naphthalene to unbound NBS. The molecules were spun and 2 nM of the molecules were prepared in the blocking buffer. The wells coated with goat anti-human IgGs were washed and blocked with the blocking buffer for 1 hour. The wells were washed followed by incubation with the UV photo-cross-linked trastuzumab (2 nM) for 1 hour. […] An Amplex red assay kit was used to detect the fluorescence signals from the specific binding of naphthalene to NBS induced by UV photo-cross-linking. Since cHBL contains naphthalene, blocked NBS of trastuzumab is expected not to be photo-cross-linked to naphthalene-EGn-biotin, leading to relatively lower signals of fluorescence in the presence of cHBL.

[5] = test system: HER2/neu receptor on BT474 cells; experiment: Cellular binding assay by flow cytometry with cHBL-tagged trastuzumab; format: cell-based
Experimental: Inhibition of trastuzumab by binding of trast-cHBL was confirmed by cellular binding assay with HER2-overexpressed breast and ovarian cancer cell lines (BT474 and SKOV3) using a Guava EasyCyte 8HT flow cytometer (Millipore). 0.5 mL of 50000 cells/mL were cultured on 2-well tissue culture plates overnight. The plate was kept on ice for 30 min to avoid receptor internalization. The wells were washed with a blocking buffer (1.5% BSA in PBS) and incubated with trastuzumab that had been previously incubated with trast-cHBL at various concentrations in the same fashion as the ELISA experiments for 1 hour on ice. The wells were washed once and incubated with Alexa Fluor 647-conjugated goat anti-human IgG (1:500 in blocking buffer) for 1 hour on ice. The wells were washed once with blocking buffer and the cells were gently scraped to run flow cytometer. Green (FITC) and Red2 (Alexa fluorophore with λem=667 nm) fluorescence were read to confirm trast-cHBL binding. Trastuzumab without any ligands and trastuzumab—FITC conjugate were used as positive controls and the cells with Alexa Flour 647-conjugated secondary antibody and without trastuzumab were used as negative controls.

IgE^dansyl = experiment: Fluorescence quenching binding of dansyl molecules to IgE^dansyl; conditions: dissociation constants for hapten-Napht conjugates
Experimental: To determine binding of HBI molecules to respective antibodies, we observed the quenching of tryptophan resides using a method previously described (Junutula JR, et al., Nat. Biotechnol. 2008; 26 (8): 925-932). Briefly, either IgE^dansyl or IgG^Penicillin was diluted into a non-binding 96-well dish at 40 nM in PBS. Then, HBI molecules which contained either a dansyl or DNP group were titrated into well and fluorescence (Ex. 280 nm, Em. 335) was observed using a SpectraMax M2 spectrophotometer. PBS and free tryptamine diluted to similar initial fluorescence values were used as controls to account for HBI fluorescence and non-specific quenching respectively.

Compound: Trast-DNP: trastuzumab binding peptide tagged with DNP (LLGPYELWELSH; also: tagged with DNP)
- Kd (trastuzumab [1]): 200 ± 14 nM

Compound: Trast-ITC: trast-cHBL molecule where the napht moiety was omitted (LLGPYELWELSH)
- antibody chain conjugated (trastuzumab [2]): conjugated nearly equally to either heavy (50 kDa) or light chain

Compound: Trast-Napht-DNP: trastuzumab binding peptide conjugated to napht with ethylene glycol spacer, DNP tagged (LLGPYELWELSH; also: conjugated to napht with ethylene glycol spacer, DNP tagged)
- Kd (trastuzumab [1]): 46 ± 6 nM
- Kd (trastuzumab [1]; listed as Trast-napht-DNP): 46.6 ± 6 nM
- fold increase in observed affinity on conjugation to napht (trastuzumab [1]; napht with ethylene glycol spacer): over 4 fold

- Kd [3]: 1800 ± 300 nM
- Kd ([3]; listed as 2-naphthaleneacetic acid): 2000 nM
Compound: O=C(O)Cc1ccc2ccccc2c1 [2-naphteleneacetic acid]

- Kd (trastuzumab [1]): 200 ± 14 nM
Compound: LLGPYELWELSH [Trastuzumab binding peptide, reference compound]

- naphthalene-biotin binding after cHBL incubation (NBS of trastuzumab): significantly less naphthalene binding
Compound: Trast-cHBL: trastuzumab-specific cHBL with peptide LLGPYELWELSH, napht, ITC and fluorescein tag (not fully specified; also: cHBL with napht, ITC and fluorescein tag)
- binding to trastuzumab (direct ELISA) (trastuzumab [4]): significant increase in binding over trastuzumab-ITC at 1 μM
- antibody chain conjugated (trastuzumab [2]): preferentially conjugated to light chain
- cHBL concentration at which FITC signal saturates [5]: 2 µM
- FITC signal, percent of maximum ([5]; 1 μM cHBL): approximately 50%
- HER2 binding (Alexa 647 signal) ([5]; 1 μM cHBL): no significant reduction in HER2 binding
- HER2 binding retained (Alexa 647 signal) ([5]; 2 μM cHBL): approximately 75%
- HER2 binding (Alexa 647 signal) ([5]; 10 μM cHBL): HER2 binding drops drastically

- Kd (IgE^dansyl): 29.9 ± 10 nM
Compound: Dansyl

- binding to trastuzumab (direct ELISA) (trastuzumab [4]): not selective to trastuzumab up to 20 μM
Compound: Rituximab-cHBL: orthogonal cHBL with rituximab binding peptide WPRWLEN
